Results on one compound are retold here after patent US20260108463A1, “NANOEMULSION FORMULATION WITH IMPROVED TACROLIMUS STABILITY AND SKIN PENETRATION” (BIOFRONTERA BIOSCIENCE GMBH, priority 2023, published 2026).

The conditions of data set [1]: cited from earlier work.
A short description of data set [2]: Solubility test of tacrolimus by visual observation. As to conditions: aqueous nanoemulsion BF200 (at least 90% water content), aqueous with cosolvent or surfactant or cyclodextrin. The data set is classed as physicochemical. The protocol: Tacrolimus was dissolved by mechanical techniques (stirring). Determination of a complete solution of substance was based on visual observation. A complete dissolution was defined as a clear solution with no signs of cloudiness or precipitation. The pure solvents were used as reference.
Samples were prepared as explained in Example D. The compound was dissolved in 10 mM Phosphate buffer (TC2) at defined concentration (see table below). For samples TC3, TC4 and TC5 the lipid phase (intermediate) of nanoemulsion BF200 was used as solvent. In a first step, Tacrolimus was dissolved in the lipid phase, followed by the preparation of the nanoemulsion by combining the aqueous phase with the lipid phase (containing Tacrolimus). Samples TC4 and TC5 were stored at 5° C. and 25° C. for a period of 6 months.

For data set [3] the following is noted: cited from earlier work. This is another data set of the same source.

Read-outs that look alike come from different tables or passages of the source. Bounds are passed on as bounds.

Take `C=CC[C@@H]1/C=C(\C)C[C@H](C)C[C@H](OC)[C@H]2O[C@@](O)(C(=O)C(=O)N3CCCC[C@H]3C(=O)O[C@H](/C(C)=C/[C@@H]3CC[C@@H](O)[C@H](OC)C3)[C@H](C)[C@@H](O)CC1=O)[C@H](C)C[C@@H]2OC` [Tacrolimus]: the “Stability in aqueous formulations” value in data set [1] (5° C., prior-art aqueous formulations (suspensions)) is “up to 9 months”; in data set [1] (room temperature, prior-art aqueous formulations (suspensions)) it was “approx. 3 months”; in data set [1] (room temperature, prior-art aqueous formulations) it was “approx. 90 days”. Also, the solubility in data set [2] was no less than 2000 µg/mL. Moreover, the logP in data set [3] is reported as greater than 3.

A word on the solubility: it is the concentration that dissolves in the medium under given conditions. Usually logP stands for the decadic logarithm of the partition coefficient of the neutral form, usually between octanol and water.
